Data reported in ChEMBL document CHEMBL4041541, “Solvent free, catalyst free, microwave or grinding assisted synthesis of bis-cyclic imide derivatives and their evaluation for anticancer activity” (Bioorg Med Chem Lett, 2017).

Assays:
[1] = system: T47D; experiment: Growth inhibition of human T47D cells at 1 x 10^-5 M after 24 hrs by MTT assay relative to control; format: functional; conditions: read-out: GI
[2] = system: NCI-H522; experiment: Growth inhibition of human NCI-H522 cells at 1 x 10^-5 M after 24 hrs by MTT assay relative to control; format: functional; conditions: NCI-H522, 24 h, read-out: GI
[3] = system: HCT-15; experiment: Growth inhibition of human HCT15 cells at 1 x 10^-5 M after 24 hrs by MTT assay relative to control; format: functional; conditions: HCT-15, 24 h, read-out: GI
[4] = system: PA-1; experiment: Growth inhibition of human PA1 cells at 1 x 10^-5 M after 24 hrs by MTT assay relative to control; format: functional; conditions: PA-1, 24 h, read-out: GI
[5] = system: HepG2; experiment: Growth inhibition of human HepG2 cells at 1 x 10^-5 M after 24 hrs by MTT assay relative to control; format: functional; conditions: HepG2, 24 h, read-out: GI
[6] = system: T47D; experiment: Growth inhibition of human T47D cells after 24 hrs by MTT assay; format: functional, cell-based
[7] = system: NCI-H522; experiment: Growth inhibition of human NCI-H522 cells after 24 hrs by MTT assay; format: functional, cell-based; conditions: NCI-H522, 24 h
[8] = system: HCT-15; experiment: Growth inhibition of human HCT15 cells after 24 hrs by MTT assay; format: functional, cell-based; conditions: HCT-15, 24 h
[9] = system: PA-1; experiment: Growth inhibition of human PA1 cells after 24 hrs by MTT assay; format: functional, cell-based; conditions: PA-1, 24 h
[10] = system: HepG2; experiment: Growth inhibition of human HepG2 cells after 24 hrs by MTT assay; format: functional, cell-based; conditions: HepG2, 24 h
[11] = system: HEK-293T; experiment: Growth inhibition of HEK293T cells after 24 hrs by MTT assay; format: cell-based; conditions: Homo sapiens
[12] = Selectivity index, ratio of IC50 for HEK293T cells to IC50 for human T47D cells; format: functional
[13] = Selectivity index, ratio of IC50 for HEK293T cells to IC50 for human NCI-H522 cells; format: functional
[14] = Selectivity index, ratio of IC50 for HEK293T cells to IC50 for human HCT15 cells; format: functional
[15] = Selectivity index, ratio of IC50 for HEK293T cells to IC50 for human PA1 cells; format: functional
[16] = Selectivity index, ratio of IC50 for HEK293T cells to IC50 for human HepG2 cells; format: functional

SMILES | inhibition of growth at 10 µM [1] | inhibition of growth at 10 µM [2] | inhibition of growth at 10 µM [3] | inhibition of growth at 10 µM [4] | inhibition of growth at 10 µM [5] | IC50 [6] | IC50 [7] | IC50 [8] | IC50 [9] | IC50 [10] | IC50 [11] | Ratio IC50 [12] | Ratio IC50 [13] | Ratio IC50 [14] | Ratio IC50 [15] | Ratio IC50 [16]
O=C1C2CC=CCC2C(=O)N1c1ccc(S(=O)(=O)c2ccc(N3C(=O)C4CC=CCC4C3=O)cc2)cc1 (stereo not given) | 41% | 56% | 51% | 41% | 19% | 31.1 µM | 37.1 µM | 14.4 µM | 32.1 µM | 18.3 µM | 42.2 µM | 2.5 - 4.5 | 2.5 - 4.5 | 2.5 - 4.5 | 2.5 - 4.5 | 2.5 - 4.5
CC(CN1C(=O)c2nccnc2C1=O)N1C(=O)c2nccnc2C1=O (stereo not given) | 6% | 4% | 21% | 1% | 1% | – | – | – | – | – | – | – | – | – | – | –
O=C1c2nc[nH]c2C(=O)N1CCCC1OCC2(CO1)COC(CCCN1C(=O)c3nc[nH]c3C1=O)OC2 (stereo not given) | 19% | 27% | 11% | 15% | 31% | – | – | – | – | – | – | – | – | – | – | –
O=C1c2nccnc2C(=O)N1CCOCCOCCN1C(=O)c2nccnc2C1=O | 39% | 35% | 47% | 38% | 6% | – | – | – | – | – | – | – | – | – | – | –
CC(CN1C(=O)Cc2ccccc2C1=O)N1C(=O)Cc2ccccc2C1=O (stereo not given) | 26% | 16% | 11% | 3% | 21% | – | – | – | – | – | – | – | – | – | – | –
O=C1CNCC(=O)N1CCN1C(=O)CNCC1=O | 38% | 30% | 30% | 20% | 15% | – | – | – | – | – | – | – | – | – | – | –
O=C1CNCC(=O)N1CCOCCOCCN1C(=O)CNCC1=O | 1% | 3% | 0% | 0% | 0% | – | – | – | – | – | – | – | – | – | – | –
O=C1CNCC(=O)N1CCCN1C(=O)CNCC1=O | 31% | 30% | 2% | 19% | 35% | – | – | – | – | – | – | – | – | – | – | –
O=C1c2nc[nH]c2C(=O)N1CCCN1C(=O)c2nc[nH]c2C1=O | 35% | 10% | 21% | 17% | 34% | – | – | – | – | – | – | – | – | – | – | –
C[C@@H]1C[C@@H]([C@H](O)CC2CC(=O)NC(=O)C2)C(=O)[C@@H](C)C1 [CYCLOHEXIMIDE] | 23% | 18% | 21% | 33% | 21% | – | 62.1 µM | 52.3 µM | – | 55.1 µM | > 100 µM | – | – | – | – | –
CC(CN1C(=O)CNCC1=O)N1C(=O)CNCC1=O (stereo not given) | 20% | 16% | 12% | 3% | 22% | – | – | – | – | – | – | – | – | – | – | –
O=C1C2CC=CCC2C(=O)N1CCCC1OCC2(CO1)COC(CCCN1C(=O)C3CC=CCC3C1=O)OC2 (stereo not given) | 39% | 19% | 11% | 7% | 25% | – | – | – | – | – | – | – | – | – | – | –
O=C1c2nc[nH]c2C(=O)N1CCCN1CCN(CCCN2C(=O)c3nc[nH]c3C2=O)CC1 | 0% | 2% | 0% | 0% | 1% | – | – | – | – | – | – | – | – | – | – | –
O=C1C2CC=CCC2C(=O)N1CCCN1CCN(CCCN2C(=O)C3CC=CCC3C2=O)CC1 (stereo not given) | 29% | 37% | 18% | 10% | 39% | – | – | – | – | – | – | – | – | – | – | –
O=C1Cc2ccccc2C(=O)N1CCN1C(=O)Cc2ccccc2C1=O | 8% | 16% | 6% | 9% | 4% | – | – | – | – | – | – | – | – | – | – | –
O=P1(N(CCCl)CCCl)NCCCO1 (stereo not given) [CYCLOPHOSPHAMIDE ANHYDROUS] | 23% | 11% | 10% | 24% | 22% | 69 µM | 69.9 µM | 76.3 µM | – | 52.3 µM | > 100 µM | – | – | – | – | –
